How the values were obtained:
[1] = test system: vascular endothelial growth factor (VEGF); test: VEGF expression in Kelly neuroblastoma cells; format: cell-based; conditions: for VEGF: conditioned media after overnight incubation
Procedure, shortened: (§1)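 Kelly neuroblastoma cells treated overnight with compound, 1% DMSO as negative control. EPO and VEGF secreted into conditioned media measured by QUANTIKINE immunoassay.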

[2] = test system: Wistar rats, transient occlusion of the middle cerebral artery; test: Rat model of transient middle cerebral artery occlusion (tMCAO): infarct volume and edema at 48 hours; format: in vivo
Text: The effect of compounds of the present invention on infarct volume and edema was examined in an animal model of ischemic stroke. For these studies, male Wistar rats (320 g) were subjected to transient occlusion of the middle cerebral artery. Rats were anesthetized with 3% isoflurane in oxygen. Aseptic technique was used for all procedures during these studies. The surgical site was clipped and cleaned with alcohol and surgical scrub. Each animal was placed on a warm water heating pad to maintain body temperature. A paramedian incision was made on the neck over the carotid artery. The tissue was bluntly dissected away to reveal the carotid artery and the carotid artery bifurcation. Sutures were placed around the proximal portion of the common carotid and the external carotid arteries and were then tied off. An incision was made in the common carotid, distal to the ligation and a pre-prepared filament (3-0 monofilament suture or like material) was placed in the carotid and advanced into the internal carotid artery. The filament was advanced approximately 20 millimeters past the carotid bifurcation until slight resistance was felt as it wedged inside the middle cerebral artery (MCA). Care was taken to not rupture the artery upon insertion of the filament. The filament was tied in place and the skin incision closed. At this time isoflurane was discontinued and the animals were allowed to awaken.
One hour after surgery, the success of MCA occlusion was assessed using the Bederson scale, as previously described. (See Bederson et al., (1986) Stroke, 17:1304-1308.) Sixty minutes after occlusion, the animals were re-anesthetized for reperfusion. The skin incision was reopened and the filament was carefully withdrawn from the MCA but not completely removed. Body temperature was taken every 15 minutes throughout the study to maintain normothermia. Animals that have undergone the MCA occlusion procedure may have difficulty in thermoregulation for a few hours after surgery. Animals were placed in a cooling or heating box as determined by their body temperature. Body temperature was maintained at 37.5° C.
Various compounds of the present invention were administered by oral gavage (p.o.) at reperfusion or at reperfusion and again at 24 hours after reperfusion in 0.5% CMC and 0.1% Polysorbate 80 at various doses (see Table 10 below). Forty-eight hours after MCA occlusion animals were euthanized with CO2 and their brains removed. After removal, the brain was sliced into 7 coronal sections, 2 mm thick. The sections were placed rostral side down in a petri dish and stained with 1% Triphenyl tetrazolium chloride for 20 minutes at 37° C. for determination of infarct volume. Brain sections were then digitally photographed and analyzed for changes in infarct volume and extent of edema. Infarct volumes were determined by measuring the infarcted (i.e., non-stained) areas of each brain section and multiplying this value by the section thickness. Extent of edema was determined by the net increase in volume of the ipsilateral cortex compared to that of the contralateral cortex of brain sections.

[3] = test system: erythropoietin (EPO); test: EPO expression in Kelly neuroblastoma cells; format: cell-based; conditions: for EPO: conditioned media after overnight incubation
Procedure, shortened: as §1

[4] = test system: vascular endothelial growth factor (VEGF); test: Brain VEGF gene expression in mice after intravenous injection; format: in vivo, Swiss Webster mice; conditions: 20 mg/kg i.v., four hours, quantitative real time PCR normalized to 18s RNA
Protocol: The effect of compounds of the present invention on regulation of cytoprotective and neuroprotective gene expression in brain was evaluated. In one series of experiments, male Swiss Webster mice were administered by intravenous injection various compounds of the present invention. Animals treated by intravenous injection received a 6 ml/kg volume of either 5% Dextrose with an equimolar amount of Meglumine (vehicle control) or 20 mg/kg of a compound of the present invention in 5% dextrose with an equimolar amount of Meglumine Animals were euthanized four hours later and their brains placed in RNAlater (Ambion, Austin Tex.) for subsequent analysis. Tissues were homogenized in Trizol (Invitrogen, Carlsbad Calif.) using 5-mm steel beads in a Mixer Mill (Qiagen, Valencia Calif.). RNA was isolated from the Trizol solution and then further purified using RNeasy kit (Qiagen). cDNA was prepared from […] total RNA using Omniscript reverse transcriptase (Qiagen) and random hexamers. Quantitative real time PCR was performed in a 7900HT instrument (Applied Biosystems, Foster City Calif.) using TaqMan Assays-on-Demand (Applied Biosystems). Gene expression levels were normalized to that of 18s RNA.

[5] = test system: db/db mice, permanent occlusion of the MCA; test: pMCAO in db/db mice: infarct volume; format: in vivo; conditions: 20 mg/kg i.v. immediately after MCA occlusion, 24 hours
Protocol: The effect of compounds of the present invention on infarct volume and edema associated with stroke was examined in an animal model of ischemic stroke. In these studies, mice were subjected to permanent occlusion of the middle cerebral artery. Mice were anesthetized intraperitoneally with avertin (0.5 mg/g). Mice were then immobilized in a rodent stereotaxic frame (Kopf Instruments, Tujunga Calif.) and maintained with avertin as needed. The surgical area of the head was swabbed with 70% ethanol and a lateral incision was made between the right orbit and the right ear. […] The distal course of the middle cerebral artery (MCA) was visible through the translucent skull. A small burr-hole craniotomy was performed with a micro-drill (Fine Science Tools, Foster City Calif.). The meninges/dura was removed and the MCA was coagulated by bipolar diathermy. The muscle and soft tissue were replaced and the incision closed with vet-bond adhesive (3M, St. Paul Minn.). These studies were performed in two different mouse models of pMCAO as described below.
To evaluate the effect of compounds of the present invention on infarct volume in an animal model of diabetes, db/db mice were subjected to ischemic stroke. Eight week-old male db/db mice were subjected to permanent occlusion of the MCA as described above. […] Changes in infarct volumes were determined as described above.

[6] = p.o. 6 mg/kg at reperfusion, 48 hours after MCA occlusion
[7] = 1 Dose 60 mg/kg p.o. at reperfusion
[8] = 2 Doses 60 mg/kg p.o., at reperfusion and 24 hours later
[9] = p.o. 60 mg/kg at reperfusion, 48 hours after MCA occlusion

Structure (SMILES)	VEGF Fold Increase [1]	VEGF [1] [pg/mL]	Percent Reduction in Edema [2, 6] [%]	Percent Reduction in Infarct Volume [2, 6] [%]	EPO Fold Increase [3]	EPO [3] [mIU/ml]	VEGF gene expression in brain [4]	Percent Reduction in Edema [2, 7] [%]	Percent Reduction in Infarct Volume [2, 7] [%]	Percent Reduction in Edema [2, 8] [%]	Percent Reduction in Infarct Volume [2, 8] [%]	Percent Reduction in Edema [2, 9] [%]	Percent Reduction in Infarct Volume [2, 9] [%]	reduction in infarct volume [5] [%]
Cc1cccc(C)c1Oc1ccc2c(C#N)nc(C(=O)NCC(=O)O)c(O)c2c1 [Compound AL, {[1-Cyano-6-(2,6-dimethyl-phenoxy)-4-hydroxy-isoquinoline-3-carbonyl]-amino}-acetic acid]	3.8	5499	12	51	11.31	213.8								
N#Cc1nc(C(=O)NCC(=O)O)c(O)c2c(Oc3ccc(F)cc3)cccc12 [Compound AS, {[1-Cyano-5-(4-fluoro-phenoxy)-4-hydroxy-isoquinoline-3-carbonyl]-amino}-acetic acid]	5.6	8197	32	58	11.72	221.5								
COc1ccc(Oc2ccc3c(O)c(C(=O)NCC(=O)O)ncc3c2)cc1 [Compound F, {[4-Hydroxy-7-(4-methoxy-phenoxy)-isoquinoline-3-carbonyl]-amino}-acetic acid]	16.2	2564.9			10.5	65	1.5	28	42	39	70	39	70	52

Reference: patent publication US9775902B2, “Compounds and methods for treatment of stroke” (FIBROGEN, INC, priority 2006, dated 2017)
